# Measured values reported in PubChem BioAssay AID212 (DTP/NCI, 2004).
# “And” between values parts separate entries of the source, which are not always exact repeats. Equal values may be shown once. Results filed as inconclusive are left out.
# System: BDF1 mice, colon carcinoma 38 sc, T/C %
# Experiment: NCI In Vivo Anticancer Drug Screen. Data for tumor model Colon Carcinoma 38 (subcutaneous) in B6D2F1 (BDF1) mice
# Settings: endpoint: median tumor weight (est.), higher = larger tumour
# Method in brief: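 Compound antitumor activity was assessed in mice carrying transplantable tumors. Survival or tumor size was recorded, and each value is the treated-group measurement divided by that of the vehicle-treated control group.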
# [1] = dose: 2.0 mg/kg/injection, schedule: Q07DX002 (ip), vehicle: water
# [2] = dose: 12.5 mg/kg/injection, schedule: Q07DX002 (ip), vehicle: saline with Tween-80
# [3] = dose: 25.0 mg/kg/injection, schedule: Q07DX002 (ip), vehicle: Klucel (hydroxypropylcellulose) (HPC)
# [4] = dose: 50.0 mg/kg/injection, schedule: Q07DX002 (ip), vehicle: Klucel (hydroxypropylcellulose) (HPC)
# [5] = dose: 12.5 mg/kg/injection, schedule: Q07DX002 (ip), vehicle: saline
# [6] = dose: 50.0 mg/kg/injection, schedule: Q07DX002 (ip), vehicle: saline
# [7] = dose: 400.0 mg/kg/injection, schedule: Q07DX002 (ip), vehicle: saline with Tween-80
compound,measurement,setting,value
COc1cccc2c1C(=O)c1c(O)c3c(c(O)c1C2=O)C[C@@](O)(/C(C)=N/NC(=O)c1ccccc1)C[C@@H]3OC1CC(N)C(O)C(C)O1 (stereo partly specified),T/C,[1],100 % of control
same,T/C,"dose: 4.0 mg/kg/injection, schedule: Q07DX002 (ip), vehicle: water",107 % of control
same,T/C,"dose: 8.0 mg/kg/injection, schedule: Q07DX002 (ip), vehicle: water",102 % of control
same,T/C,"dose: 16.0 mg/kg/injection, schedule: Q07DX002 (ip), vehicle: water",16 % of control
CN(C)CCN1C(=O)c2cccc3cc([N+](=O)[O-])cc(c23)C1=O,T/C,"dose: 1.56 mg/kg/injection, schedule: Q07DX002 (ip), vehicle: saline with Tween-80",93 % of control
same,T/C,"dose: 3.13 mg/kg/injection, schedule: Q07DX002 (ip), vehicle: saline with Tween-80",90 % of control
same,T/C,"dose: 6.25 mg/kg/injection, schedule: Q07DX002 (ip), vehicle: saline with Tween-80",70 % of control
same,T/C,[2],56 % of control
CCCCCC(O)C1C(=O)OC(C)C(O)/C=C/C=C/C=C/C=C/C=C(\C)C(O)C(O)C(O)CC(O)CC(O)CC(O)CC(O)CC1O (stereo unspecified),T/C,"dose: 0.5 mg/kg/injection, schedule: Q07DX002 (ip), vehicle: saline",92 % of control
same,T/C,"dose: 1.0 mg/kg/injection, schedule: Q07DX002 (ip), vehicle: saline",118 % of control
same,T/C,"dose: 4.0 mg/kg/injection, schedule: Q07DX002 (ip), vehicle: saline",90 % of control
same,T/C,"dose: 8.0 mg/kg/injection, schedule: Q07DX002 (ip), vehicle: saline",95 % of control
CS(=O)(=O)[O-].CS(=O)(=O)[O-].NC1CCCCC1N.[Pt+4] (stereo unspecified),T/C,"dose: 0.31 mg/kg/injection, schedule: Q07DX002 (ip), vehicle: dextrose",71 % of control
same,T/C,"dose: 0.62 mg/kg/injection, schedule: Q07DX002 (ip), vehicle: dextrose",58 % of control and 82 % of control
same,T/C,"dose: 1.25 mg/kg/injection, schedule: Q07DX002 (ip), vehicle: dextrose",54 % of control and 56 % of control
same,T/C,"dose: 2.5 mg/kg/injection, schedule: Q07DX002 (ip), vehicle: dextrose",35 % of control and 45 % of control
same,T/C,"dose: 5.0 mg/kg/injection, schedule: Q07DX002 (ip), vehicle: dextrose",39 % of control
same,T/C,"dose: 10.0 mg/kg/injection, schedule: Q07DX002 (ip), vehicle: dextrose",19 % of control
C/C(=N\N=C(/[Se])N1CC2CCC(CC2)C1)c1ccccn1,T/C,"dose: 3.0 mg/kg/injection, schedule: Q07DX002 (ip), vehicle: Klucel (hydroxypropylcellulose) (HPC)",111 % of control
same,T/C,"dose: 6.0 mg/kg/injection, schedule: Q07DX002 (ip), vehicle: Klucel (hydroxypropylcellulose) (HPC)",67 % of control
same,T/C,"dose: 12.0 mg/kg/injection, schedule: Q07DX002 (ip), vehicle: Klucel (hydroxypropylcellulose) (HPC)",91 % of control
same,T/C,[3],106 % of control
same,T/C,[4],45 % of control
C[N+](C)(C)c1ncnc2c1ncn2C1CCCO1 (stereo unspecified),T/C,[5],110 % of control
same,T/C,"dose: 25.0 mg/kg/injection, schedule: Q07DX002 (ip), vehicle: saline",84 % of control
same,T/C,[6],61 % of control and 77 % of control
same,T/C,"dose: 200.0 mg/kg/injection, schedule: Q07DX002 (ip), vehicle: saline",65 % of control and 89 % of control
CC1=C(/C=C/C(C)=C/C=C/C(C)=C/C(=O)O)C(C)(C)CCC1,T/C,"dose: 3.12 mg/kg/injection, schedule: Q07DX003 (ip), vehicle: saline with Tween-80",87 % of control
same,T/C,"dose: 6.25 mg/kg/injection, schedule: Q07DX003 (ip), vehicle: saline with Tween-80",96 % of control
same,T/C,"dose: 8.0 mg/kg/injection, schedule: Q07DX003 (ip), vehicle: saline with Tween-80",103 % of control
same,T/C,"dose: 12.5 mg/kg/injection, schedule: Q07DX003 (ip), vehicle: saline with Tween-80",99 % of control
same,T/C,"dose: 25.0 mg/kg/injection, schedule: Q07DX003 (ip), vehicle: saline with Tween-80",100 % of control
same,T/C,"dose: 32.0 mg/kg/injection, schedule: Q07DX003 (ip), vehicle: saline with Tween-80",98 % of control
same,T/C,"dose: 64.0 mg/kg/injection, schedule: Q07DX003 (ip), vehicle: saline with Tween-80",102 % of control
Nc1ncnc2c1ccn2C1OC(CO)C(O)C1O (stereo unspecified),T/C,"dose: 0.5 mg/kg/injection, schedule: Q07DX003 (ip), vehicle: Klucel (hydroxypropylcellulose) (HPC)",110 % of control and 87 % of control
same,T/C,"dose: 1.0 mg/kg/injection, schedule: Q07DX003 (ip), vehicle: Klucel (hydroxypropylcellulose) (HPC)",74 % of control and 80 % of control
same,T/C,"dose: 2.0 mg/kg/injection, schedule: Q07DX003 (ip), vehicle: Klucel (hydroxypropylcellulose) (HPC)",84 % of control and 86 % of control
O=C(NO)c1cc(O)c(O)c(O)c1,T/C,"dose: 50.0 mg/kg/injection, schedule: Q07DX002 (ip), vehicle: water",80 % of control
same,T/C,"dose: 100.0 mg/kg/injection, schedule: Q07DX002 (ip), vehicle: water",70 % of control
same,T/C,"dose: 200.0 mg/kg/injection, schedule: Q07DX002 (ip), vehicle: water",68 % of control
same,T/C,"dose: 400.0 mg/kg/injection, schedule: Q07DX002 (ip), vehicle: water",83 % of control
same,T/C,"dose: 800.0 mg/kg/injection, schedule: Q07DX002 (ip), vehicle: water",40 % of control
O=C(O)CC(=O)O.[NH-]CC[NH-].[Pt+2],T/C,"dose: 14.1 mg/kg/injection, schedule: Q07DX002 (ip), vehicle: dextrose",71 % of control and 85 % of control
same,T/C,"dose: 28.1 mg/kg/injection, schedule: Q07DX002 (ip), vehicle: dextrose",69 % of control
same,T/C,"dose: 28.2 mg/kg/injection, schedule: Q07DX002 (ip), vehicle: dextrose",71 % of control and 75 % of control
same,T/C,"dose: 56.2 mg/kg/injection, schedule: Q07DX002 (ip), vehicle: dextrose",42 % of control
C(COCCOCC1CO1)OCCOCC1CO1 (stereo unspecified),T/C,[2],88 % of control
same,T/C,[5],102 % of control
same,T/C,[6],158 % of control
same,T/C,"dose: 100.0 mg/kg/injection, schedule: Q07DX002 (ip), vehicle: saline",84 % of control
same,T/C,"dose: 200.0 mg/kg/injection, schedule: Q07DX002 (ip), vehicle: saline with Tween-80",113 % of control
same,T/C,[7],99 % of control
same,T/C,"dose: 400.0 mg/kg/injection, schedule: Q07DX002 (ip), vehicle: saline",68 % of control
CNc1nc2c(N)ncnc2n1C1OC(CO)C(O)C1O (stereo unspecified),T/C,[5],103 % of control
C[n+]1ccc(Nc2ccc(NC(=O)c3ccc(Nc4cc[n+](C)c5ccc(N)cc45)cc3)cc2)cc1,T/C,"dose: 0.5 mg/kg/injection, schedule: Q07DX002 (ip), vehicle: water",99 % of control
same,T/C,"dose: 1.0 mg/kg/injection, schedule: Q07DX002 (ip), vehicle: water",86 % of control
same,T/C,[1],93 % of control
C=C(C)[C@@H]1CCc2c(O)c(O)c(=O)cc(C)c2C1,T/C,[3],102 % of control
same,T/C,[4],64 % of control
same,T/C,"dose: 100.0 mg/kg/injection, schedule: Q07DX002 (ip), vehicle: Klucel (hydroxypropylcellulose) (HPC)",85 % of control
same,T/C,"dose: 200.0 mg/kg/injection, schedule: Q07DX002 (ip), vehicle: Klucel (hydroxypropylcellulose) (HPC)",96 % of control
same,T/C,"dose: 400.0 mg/kg/injection, schedule: Q07DX002 (ip), vehicle: Klucel (hydroxypropylcellulose) (HPC)",102 % of control
CO[C@@]12[C@@H]3N[C@@H]3CN1C1=C(C(=O)C(NCC3CCCO3)=C(C)C1=O)[C@@H]2COC(N)=O (stereo partly specified),T/C,"dose: 3.0 mg/kg/injection, schedule: Q07DX002 (ip), vehicle: distilled water + Tween-80",93 % of control
same,T/C,"dose: 6.0 mg/kg/injection, schedule: Q07DX002 (ip), vehicle: distilled water + Tween-80",69 % of control
same,T/C,"dose: 12.0 mg/kg/injection, schedule: Q07DX002 (ip), vehicle: distilled water + Tween-80",34 % of control
same,T/C,"dose: 24.0 mg/kg/injection, schedule: Q07DX002 (ip), vehicle: distilled water + Tween-80",28 % of control
O=C1NC(=O)C2C3C=CC(C12)C1C2C(=O)NC(=O)C2C31 (stereo unspecified),T/C,[7],29 % of control and 50 % of control
CNC(=O)n1c(N)nc(-c2ccccc2)c1-c1ccccc1,T/C,[2],80 % of control
same,T/C,"dose: 25.0 mg/kg/injection, schedule: Q07DX002 (ip), vehicle: saline with Tween-80",99 % of control
same,T/C,"dose: 50.0 mg/kg/injection, schedule: Q07DX002 (ip), vehicle: saline with Tween-80",119 % of control
same,T/C,"dose: 100.0 mg/kg/injection, schedule: Q07DX002 (ip), vehicle: saline with Tween-80",98 % of control
CC(C)[NH-].CC(C)[NH-].O.O.[Cl][Pt+2][Cl],T/C,"dose: 3.12 mg/kg/injection, schedule: Q07DX003 (ip), vehicle: dextrose",90 % of control
same,T/C,"dose: 6.25 mg/kg/injection, schedule: Q07DX002 (ip), vehicle: dextrose",41 % of control
same,T/C,"dose: 12.5 mg/kg/injection, schedule: Q07DX002 (ip), vehicle: dextrose",81 % of control
same,T/C,"dose: 25.0 mg/kg/injection, schedule: Q07DX002 (ip), vehicle: dextrose",39 % of control
same,T/C,"dose: 25.0 mg/kg/injection, schedule: Q07DX003 (ip), vehicle: dextrose",52 % of control
